Data set [1] in a line: Cytotoxicity against THP-1 macrophages (MTT). It counts as cell-based. The note with it: human, PMA-differentiated THP-1 macrophages, read-out: Toxicity CC50 ± SD Or CC50 Interval Estimation. The method, then:
The effect of compounds selected compounds on THP-1-derived macrophages was assessed by the colorimetric MTT assay (3-(4,5-dimethylthiazol-2-yl)-2,5-diphenyl tetrazolium bromide). Briefly, 1 × 10^5 THP-1 cells/mL were differentiated into macrophages by addition of 20 ng/mL of phorbol-myristate 13-acetate (PMA, Sigma, Saint Louis, MI, USA) for 18 h, followed by replacement with fresh medium for 24 h. Cells were incubated with 100 µL of compounds ranging from 100 to 1 µM after dilution in the RPMI complete medium containing a maximum amount of 1% DMSO. After incubation for 72 h, the medium was removed and 100 µL of 0.5 mg/mL MTT solution diluted in RPMI was added. Plates were incubated for an additional 4 h to allow viable cells to convert MTT into a purple formazan product. Solubilization of formazan crystals was achieved by the addition of 2-propanol and absorbance was read at 570 nm using a Synergy 2 Multi-Mode Reader (Biotek, Winooski, VT, USA). Cytotoxicity was evaluated by the determination of the CC50 value (drug concentration that reduced the percentage of viable cells in 50%) and calculated by non-linear regression analysis using GraphPad Prism version 8.1.1 for Windows (GraphPad Software, San Diego, CA, USA).

For data set [2], the target named is T1, CYP1A2 (Homo sapiens, UniProt P05177).
T1 construct: purchased Corning Inc; host or cells: baculovirus-infected insect cells
T1 sequence (P05177 2-516 limits assumed): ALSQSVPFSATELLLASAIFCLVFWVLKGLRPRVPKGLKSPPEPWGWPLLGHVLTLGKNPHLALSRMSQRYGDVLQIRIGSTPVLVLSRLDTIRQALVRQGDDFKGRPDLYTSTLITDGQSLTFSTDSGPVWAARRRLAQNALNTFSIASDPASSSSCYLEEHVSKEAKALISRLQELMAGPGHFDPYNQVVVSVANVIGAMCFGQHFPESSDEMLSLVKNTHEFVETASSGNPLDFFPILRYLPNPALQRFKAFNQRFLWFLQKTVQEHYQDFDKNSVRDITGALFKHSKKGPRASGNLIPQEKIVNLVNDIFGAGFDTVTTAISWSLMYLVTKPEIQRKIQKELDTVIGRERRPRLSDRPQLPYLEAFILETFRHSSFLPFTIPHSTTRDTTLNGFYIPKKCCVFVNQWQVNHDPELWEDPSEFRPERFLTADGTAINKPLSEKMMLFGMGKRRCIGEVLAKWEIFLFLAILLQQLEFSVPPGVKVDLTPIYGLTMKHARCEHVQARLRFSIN
Kind of data set: Cytochrome P450 inhibition assay (P450-Glo) CYP1A2. Format: in vitro ADME. As to conditions: compounds 10 μM; miltefosine 10 μM or 1 μM. From the text: Cytochrome (CYP) P450 inhibition assay: These assays made use of microsomal preparations of CYP450 (1A2, 2C9, 2C19, 2D6 and 3A4) from baculovirus-infected insect cells (Corning Inc., Corning, NY, USA) and cytochrome c reductase (and cytochrome b5 for CYP450 3A4). For detection of CYP450 activity, the luminescence-based P450-Glo (Promega Corp., Madison, WI, USA) assay system was used that contained a luminogenic CYP450 substrate, lyophilized luciferin detection reagent and reconstitution buffer. The substrates were luciferin derivatives of CYP450-specific substrates that produce (4S)-4,5-dihydro-2-(6-hydroxybenzothiazolyl)-4-thiazolecarboxylic acid (D-luciferin) after cleavage by CYP450 (CYP450 3A4, luciferin-IPA; CYP450 2C19, luciferin-H EGE; CYP450 2C9, luciferin-H; CYP450 2D6, luciferin-ME EGE; CYP450 1A2, luciferin-1A2). CYP450 reactions were initiated by addition of the NADPH regeneration system to the enzyme–substrate mixture with the luciferin detection reagent stopping the reaction and the D-luciferin being converted to oxyluciferin under the production of light being proportional to the CYP450 activity. The CYP450 assays were performed using the Tecan Fluent liquid-handling automation platform (Tecan Group Ltd., Mannedorf, Switzerland) in the 384-well assay format. Compounds were added into an empty 384-well plate (100 nL/well in 1% v/v DMSO) using the Echo 550 Liquid Handler followed by the addition of 5 μL/well of the CYP450/substrate mixture and incubation for 30 min at 37 °C, after which the reaction was initiated by the addition of the 5 μL/well NADPH regeneration system. After a further 30-min incubation at 37 °C, the CYP450 reaction was stopped and the luciferase reaction was simultaneously initiated by addition of 10 μL/well of luciferin detection reagent, followed by an additional 30-min incubation at 37 °C. The luminescence signal was detected using an Infinite M1000 PRO plate reader (Tecan Group Ltd., Mannedorf, Switzerland). The NCs yielded 0% inhibition (1% v/v DMSO) and standard CYP450 specific inhibitors were used as positive controls, yielding 100% inhibition (CYP450 1A2, alpha-naphthoflavone; CYP450 2C9, sulfaphenazole; CYP450 2C19, troglitazone; CYP450 2D6, quinidine; CYP450 3A4, ketoconazole).
Data analysis: The screening data were obtained in triplicate and analysed using ActivityBase (IDBS, Guildford, UK), and outlier elimination in the control wells was performed using the 3-sigma method. Unless stated, dose–response experiments were performed in the 11-point format with the IC50 value, Hill slope, minimum signal and maximum signal for each dose–response curve obtained using a four-parameter logistic fit in the XE module of ActivityBase (IDBS).

For data set [3], the system named is T. cruzi Y strain intracellular amastigotes. In words: Activity against T. cruzi Y strain intracellular amastigotes (HG39 cell-line, parasite load). Format: cell-based. The note with it: Trypanosoma cruzi, read-out: Parassite Load Reduction (%). The method, then: T. cruzi epimastigotes (Y strain) were obtained by axenic cultivation in the LIT medium, supplemented with 10% FBS (Cultilab, São Paulo, Brazil). Cultures were maintained at […] for 4–5 days until they reached the log growth phase. New cultures were made every 4 days from the initial inoculum of 2 × 10^6 parasites/mL. T. cruzi trypomastigotes (Y strain) were maintained in culture by the infection of LLC-MK2 (ATTC-CCL7) epithelial cells. This cell line was cultured in […] tissue culture bottles (TPP) in RPMI 1640 medium (Gibco), (Thermo Fischer Scientific, Carlsbad, CA, USA) supplemented with 10% FBS (Gibco) (Thermo Fischer Scientific, Carlsbad, CA, USA). Cultures were maintained at 37 °C under 5% CO2 atmosphere, and RPMI 1640 medium and SFB were exchanged every 48 h. After confluence, the cultures were treated with 1 mL of a mixture of trypsin and versene (Sigma, São Paulo, Brazil) (0.2 and 0.002%, respectively). After 24 h, a subconfluence culture was infected with the trypomastigotes in the approximate proportion of 10:1 parasites/cell. From five to seven days post infection, the trypomastigote stage was obtained from the culture supernatant. Alternatively (Figure 2), T. cruzi strain Y was maintained as previously described.

The test system of data set [4] is L. donovani strain BPK190 amastigotes. Kind of data set: Activity against L. donovani intramacrophage amastigotes (bone marrow-derived macrophages, qPCR). Format: cell-based, Leishmania donovani. The note with it: Leishmania donovani, Macrophage, infected bone marrow-derived macrophages, 48 h, read-out: Parassite Load Reduction (%). The method, then:
L. donovani strain BPK 190 [55] was cultivated at 25 °C in modified Medium199 (Sigma-Aldrich, with 20% heat-inactivated FCS, 40 mM HEPES pH 7.4, 0.2% NaHCO3, 100 μM adenin, 1.2 μg/mL 6-biopterin and 10 μg/mL haem, with 1 × Pen/Strep/l-glutamine (Sigma, Saint Louis, MI, USA), pH 7.0).
Activity against L. donovani strain BPK190 was tested in vitro using bone marrow-derived macrophages as host cells. Infection was established for 24 h prior to the addition of compounds from 10 mM stocks in DMSO. Parasite load was determined 48 h later by quantifying Leishmania actin DNA relative to mouse actin DNA using real time qPCR as described.

In data set [5] the test system is T. b. brucei L427 WT bloodstream form. In words: Activity against T. brucei bloodstream forms (resazurin-based assay). It counts as cell-based. As to conditions: Trypanosoma brucei, 72 h. The method, then:
Trypanosoma brucei brucei Lister 427 bloodstream forms were grown at 37 °C, 5% CO2 in complete HMI-9 medium supplemented with 10% foetal calf serum (FCS) and 100 UI/mL of penicillin/streptomycin. […] The efficacy of compounds against T. brucei bloodstream forms was evaluated using a modified resazurin-based assay previously described. Mid-log bloodstream forms were added to an equal volume of serial dilutions of compounds in supplemented complete HMI-9 medium at a final cell density of 5 × 10^3/mL. Following incubation for 72 h at 37 °C 5% CO2, 20 μL of a 0.5 mM resazurin solution was added and plates were incubated for a further 4 h under the same conditions. Fluorescence was measured at 540 nm and 620 nm excitation and emission wavelength, respectively, using a Synergy 2 Multi-Mode Reader (Biotek, Winooski, VT, USA).
Background: Alamar Blue is a resazurin reagent that responds to reducing activity.

Where a name gives a salt, the structure may show the parent alone.

One may read the CC50 as the concentration giving 50% cytotoxicity. Regarding `C[N+](C)(C)CCOP(=O)([O-])OCCCCCCCCCCCn1cc(CCCCCCCCC(=O)OCc2ccccc2)nn1` [Compound 30, 11-(4-(9-(benzyloxy)-9-oxononyl)-1H-1,2,3-triazol-1-yl)undecyl (2-(trimethyl ammonio)ethyl) phosphate inner salt], in data set [1], the CC50 at 72 h was above 100 µM. Besides, the “% inhibition ± SD at 10 μΜ CYP1A2” value in data set [2] is “–2.91%”. In data set [3], the inhibition of growth at 10 µM was found to be 69.7%. For the same compound, in data set [4], the inhibition of growth at 5 µM is 0%.

As for `C[N+](C)(C)CCOP(=O)([O-])OCCCCCCCCCCCn1cc(CCCCCCCCN)nn1` [Compound 36, 11-(4-(8-aminooctyl)-1H-1,2,3-triazol-1-yl)undecyl (2-(trimethylammonio)ethyl) phosphate inner salt], the CC50 at 72 h in data set [1] is above 100 µM. Moreover, the inhibition at 10 µM in data set [5] (10 μM, read-out: Single Dose Assay 10μM Mean Inhibitory Activity (%) ± SD) was determined as 30 ± 7%. Moreover, the “% inhibition ± SD at 10 μΜ CYP1A2” value in data set [2] is reported as 3.18%. In data set [3], the inhibition of growth at 10 µM came out at 0%. Also, in data set [4], the inhibition of growth at 5 µM worked out at 20.3%.

With `CC1CS(=O)(=O)CCN1/N=C/c1ccc([N+](=O)[O-])o1` (centres unmarked) [Nifurtimox, reference compound], the inhibition of growth at 10 µM in data set [3] came out at 81.2%.

One may read the IC50 as the concentration that gives 50% inhibition. On to `N=C(N)c1ccc(OCCCCCOc2ccc(C(=N)N)cc2)cc1` [Pentamidine, reference compound], for which the IC50 in data set [5] (read-out: Dose Response Curves IC50 ± SD) is 0.00155 ± 0.00024 µM.

Source of the values: paper PMC8305768, “Design, Synthesis and Antiparasitic Evaluation of Click Phospholipids” (Molecules, 2021).
